Reference: PubChem BioAssay AID1919016 (Molecular Pharmacology Branch, DTP, NCI, 2023)
“And” between values parts separate entries of the source, which are not always exact repeats. Equal entries are not always repeated.

Tested on: NCI-H196 complex spheroid growth, percent test/control
Assay: Anticancer human tumor NCI-H196 cell line growth inhibition [AhR];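 note: seven days of drug exposure starting three days after plating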;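 for viability, T/C: 100% = DMSO vehicle control wells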
Settings: for viability, T/C: stronger effect = lower value; active = viability on the fitted dose curve at most 10% of control; inactive = the rest
How it was run: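 Spheroids combined tumor cells with HUVEC endothelial cells and human MSCs as stroma. AhR antagonists were paired with standard or investigational drugs, each dosed in half-log steps down from near clinical Cmax, or from 10 microM where Cmax was unknown.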

[1] = curve of first compound, second compound 0.1 µM
[2] = curve of first compound, second compound 0.316 µM
[3] = curve of first compound, second compound 1 µM
[4] = curve of first compound, second compound 3.16 µM
[5] = curve of first compound, second compound 10 µM
[6] = second compound 0.1 µM, first compound 0.0316 µM
[7] = second compound 0.1 µM, first compound 0.1 µM
[8] = second compound 0.1 µM, first compound 0.316 µM
[9] = second compound 0.1 µM, first compound 1 µM
[10] = second compound 0.1 µM, first compound 3.16 µM
[11] = second compound 0.1 µM, first compound 10 µM
[12] = second compound 0.316 µM, first compound 0.0316 µM
[13] = second compound 0.316 µM, first compound 0.1 µM
[14] = second compound 0.316 µM, first compound 0.316 µM
[15] = second compound 0.316 µM, first compound 1 µM
[16] = second compound 0.316 µM, first compound 3.16 µM
[17] = second compound 0.316 µM, first compound 10 µM
[18] = second compound 1 µM, first compound 0.0316 µM
[19] = second compound 1 µM, first compound 0.1 µM
[20] = second compound 1 µM, first compound 0.316 µM
[21] = second compound 1 µM, first compound 1 µM
[22] = second compound 1 µM, first compound 3.16 µM
[23] = second compound 1 µM, first compound 10 µM
[24] = second compound 3.16 µM, first compound 0.0316 µM
[25] = second compound 3.16 µM, first compound 0.1 µM
[26] = second compound 3.16 µM, first compound 0.316 µM
[27] = second compound 3.16 µM, first compound 1 µM
[28] = second compound 3.16 µM, first compound 3.16 µM
[29] = second compound 3.16 µM, first compound 10 µM
[30] = second compound 10 µM, first compound 0.0316 µM
[31] = second compound 10 µM, first compound 0.1 µM
[32] = second compound 10 µM, first compound 0.316 µM
[33] = second compound 10 µM, first compound 1 µM
[34] = second compound 10 µM, first compound 3.16 µM
[35] = second compound 10 µM, first compound 10 µM

NS(=O)(=O)OCC1CC(n2ccc3c(NC4CCc5ccccc54)ncnc32)CC1O (centres undefined) + Cc1cncc(-c2nc(NCCc3c[nH]c4ccccc34)c3ncn(C(C)C)c3n2)c1
inactive: viability, T/C [6] 73.7% | viability, T/C [7] 65.6% | viability, T/C [8] 57.3% | viability, T/C [9] 48.6% | viability, T/C [10] 77% | viability, T/C [11] 68.2% | viability, T/C [12] 80% | viability, T/C [13] 63.3% | viability, T/C [14] 56.3% | viability, T/C [15] 55.6% | viability, T/C [16] 58.1% | viability, T/C [17] 64.9% | viability, T/C [18] 74.3% | viability, T/C [19] 66.7% | viability, T/C [20] 60.6% | viability, T/C [21] 49.3% | viability, T/C [22] 72% | viability, T/C [23] 59.3% | viability, T/C [24] 81.8% | viability, T/C [25] 81.8% | viability, T/C [26] 66.8% | viability, T/C [27] 53.8% | viability, T/C [28] 60.7% | viability, T/C [29] 66.2% | viability, T/C [30] 102% | viability, T/C [31] 91.7% | viability, T/C [32] 96.4% | viability, T/C [33] 79.6% | viability, T/C [34] 74.8% | viability, T/C [35] 61.6%
> 10000 nM: IC50 [1] | IC50 [2] | IC50 [3] | IC50 [4] | IC50 [5]

NS(=O)(=O)OCC1CC(n2ccc3c(NC4CCc5ccccc54)ncnc32)CC1O (centres undefined) + CC(CO)NC(=O)c1cc(-c2ccc(Cl)cc2)nn(-c2cnn(C)c2)c1=O
> 10000 nM: IC50 [1] | IC50 [2] | IC50 [3] | IC50 [4] | IC50 [5]
inactive: viability, T/C [6] 85.4% | viability, T/C [7] 79.8% | viability, T/C [8] 67.1% | viability, T/C [9] 61.3% | viability, T/C [10] 62.9% | viability, T/C [11] 60.2% | viability, T/C [12] 82.8% | viability, T/C [13] 85.2% | viability, T/C [14] 68.8% | viability, T/C [15] 59.2% | viability, T/C [16] 52.5% | viability, T/C [17] 55.7% | viability, T/C [18] 87.2% | viability, T/C [19] 74.4% | viability, T/C [20] 67.6% | viability, T/C [21] 57.5% | viability, T/C [22] 61.2% | viability, T/C [23] 51.4% | viability, T/C [24] 81.4% | viability, T/C [25] 83.7% | viability, T/C [26] 71.1% | viability, T/C [27] 56.4% | viability, T/C [28] 62.9% | viability, T/C [29] 55.4% | viability, T/C [30] 90.7% | viability, T/C [31] 96.9% | viability, T/C [32] 83.8% | viability, T/C [33] 59.2% | viability, T/C [34] 54% | viability, T/C [35] 52.4%

CCN(c1cc(-c2ccc(CN3CCOCC3)cc2)cc(C(=O)NCc2c(C)cc(C)[nH]c2=O)c1C)C1CCOCC1
> 3000 nM: IC50 (curve of compound)
inactive: viability, T/C (compound 0.00949 µM) 98.5% and 117% and 104% | viability, T/C (compound 0.03 µM) 103% and 99.6% and 104% | viability, T/C (compound 0.0949 µM) 92.1% and 98.2% and 99.4% | viability, T/C (compound 0.3 µM) 111% and 101% and 107% | viability, T/C (compound 0.949 µM) 110% (2×) and 106% | viability, T/C (compound 3 µM) 104% and 94.1% and 107%

O=C(C=Cn1cnc(-c2cc(C(F)(F)F)cc(C(F)(F)F)c2)n1)NNc1cnccn1 + Cc1ccccc1N=Nc1ccc(NC(=O)c2ccnn2C)c(C)c1
33.4 nM: IC50 [1]
inactive: viability, T/C (second compound 0.1 µM, first compound 0.00949 µM) 71.3% | viability, T/C (second compound 0.1 µM, first compound 0.03 µM) 54.5% | viability, T/C (second compound 0.316 µM, first compound 0.00949 µM) 72.7% | viability, T/C (second compound 0.316 µM, first compound 0.03 µM) 58.6% | viability, T/C (second compound 1 µM, first compound 0.00949 µM) 79.8% | viability, T/C (second compound 1 µM, first compound 0.03 µM) 56% | viability, T/C (second compound 3.16 µM, first compound 0.00949 µM) 68.4% | viability, T/C (second compound 3.16 µM, first compound 0.03 µM) 56.8% | viability, T/C (second compound 10 µM, first compound 0.00949 µM) 74.6% | viability, T/C (second compound 10 µM, first compound 0.03 µM) 64% | viability, T/C (second compound 10 µM, first compound 0.0949 µM) 13.8% | viability, T/C (second compound 10 µM, first compound 0.3 µM) 10.6% | viability, T/C (second compound 10 µM, first compound 0.949 µM) 8.84% | viability, T/C (second compound 10 µM, first compound 3 µM) 12.8%
41.3 nM: IC50 [5]
35.4 nM: IC50 [4]
active: viability, T/C (second compound 0.1 µM, first compound 0.0949 µM) 6.66% | viability, T/C (second compound 0.1 µM, first compound 0.3 µM) 6.81% | viability, T/C (second compound 0.1 µM, first compound 0.949 µM) 5.42% | viability, T/C (second compound 0.1 µM, first compound 3 µM) 7.76% | viability, T/C (second compound 0.316 µM, first compound 0.0949 µM) 8.61% | viability, T/C (second compound 0.316 µM, first compound 0.3 µM) 5.66% | viability, T/C (second compound 0.316 µM, first compound 0.949 µM) 6.01% | viability, T/C (second compound 0.316 µM, first compound 3 µM) 6.07% | viability, T/C (second compound 1 µM, first compound 0.0949 µM) 9.47% | viability, T/C (second compound 1 µM, first compound 0.3 µM) 5.55% | viability, T/C (second compound 1 µM, first compound 0.949 µM) 8.58% | viability, T/C (second compound 1 µM, first compound 3 µM) 8.52% | viability, T/C (second compound 3.16 µM, first compound 0.0949 µM) 9.86% | viability, T/C (second compound 3.16 µM, first compound 0.3 µM) 4.79% | viability, T/C (second compound 3.16 µM, first compound 0.949 µM) 7.89% | viability, T/C (second compound 3.16 µM, first compound 3 µM) 8.09%
34.8 nM: IC50 [3]
36.6 nM: IC50 [2]

CC(C)c1c(-c2ccccc2)nc2c(C#N)c[nH]n2c1=O + CC(CO)NC(=O)c1cc(-c2ccc(Cl)cc2)nn(-c2cnn(C)c2)c1=O
inactive: viability, T/C [6] 118% | viability, T/C [7] 107% | viability, T/C [8] 111% | viability, T/C [9] 105% | viability, T/C [10] 104% | viability, T/C [11] 102% | viability, T/C [12] 116% | viability, T/C [13] 128% | viability, T/C [14] 109% | viability, T/C [15] 112% | viability, T/C [16] 108% | viability, T/C [17] 111% | viability, T/C [18] 111% | viability, T/C [19] 114% | viability, T/C [20] 117% | viability, T/C [21] 121% | viability, T/C [22] 118% | viability, T/C [23] 104% | viability, T/C [24] 109% | viability, T/C [25] 111% | viability, T/C [26] 118% | viability, T/C [27] 114% | viability, T/C [28] 117% | viability, T/C [29] 110% | viability, T/C [30] 116% | viability, T/C [31] 127% | viability, T/C [32] 114% | viability, T/C [33] 119% | viability, T/C [34] 111% | viability, T/C [35] 108%
> 10000 nM: IC50 [1] | IC50 [2] | IC50 [3] | IC50 [4] | IC50 [5]

COc1cccc2c1C(=O)c1c(O)c3c(c(O)c1C2=O)CC(O)(C(=O)CO)CC3OC1CC(N)C(O)C(C)O1 (centres undefined)
inactive: viability, T/C (compound 0.0316 µM) 95.5% and 104% and 102% | viability, T/C (compound 0.1 µM) 97.6% and 102% and 108% | viability, T/C (compound 0.316 µM) 82.6% and 76.4% and 99.2% | viability, T/C (compound 1 µM) 42.9% and 44.2% and 59%
792 nM and 736 nM and 1200 nM: IC50 (curve of compound)
active: viability, T/C (compound 3.16 µM) 0.87% and 1.36% and 2.64% | viability, T/C (compound 10 µM) 1.12% and 5.21% and 1.87%

CC1COCCN1c1cc(-c2ccnn2C)c2ccnc(-c3ccn[nH]3)c2n1 (centres undefined) + Cc1cncc(-c2nc(NCCc3c[nH]c4ccccc34)c3ncn(C(C)C)c3n2)c1
> 1000 nM: IC50 [1] | IC50 [2] | IC50 [3] | IC50 [4] | IC50 [5]
inactive: viability, T/C (second compound 0.1 µM, first compound 0.00316 µM) 105% | viability, T/C (second compound 0.1 µM, first compound 0.01 µM) 96.6% | viability, T/C [6] 86.5% | viability, T/C [7] 70% | viability, T/C [8] 62.4% | viability, T/C [9] 60.7% | viability, T/C (second compound 0.316 µM, first compound 0.00316 µM) 95.5% | viability, T/C (second compound 0.316 µM, first compound 0.01 µM) 94.1% | viability, T/C [12] 86.7% | viability, T/C [13] 71.2% | viability, T/C [14] 64.5% | viability, T/C [15] 52.7% | viability, T/C (second compound 1 µM, first compound 0.00316 µM) 103% | viability, T/C (second compound 1 µM, first compound 0.01 µM) 97.7% | viability, T/C [18] 96.4% | viability, T/C [19] 79.4% | viability, T/C [20] 70.9% | viability, T/C [21] 57.9% | viability, T/C (second compound 3.16 µM, first compound 0.00316 µM) 106% | viability, T/C (second compound 3.16 µM, first compound 0.01 µM) 123% | viability, T/C [24] 101% | viability, T/C [25] 88.8% | viability, T/C [26] 77.6% | viability, T/C [27] 58.2% | viability, T/C (second compound 10 µM, first compound 0.00316 µM) 68.1% | viability, T/C (second compound 10 µM, first compound 0.01 µM) 80.7% | viability, T/C [30] 75.7% | viability, T/C [31] 66% | viability, T/C [32] 80% | viability, T/C [33] 71.8%
